For series [1] the following is noted: Crystal; DTA.
The nature of series [2]: Molar enthalpy of transition or fusion. The conditions noted are these: Crystal; DSC.

± gives the expanded uncertainty stated by the source.

`CCOc1cccc(C=O)c1O` [3-ethoxysalicylaldehyde]: in series [1], the Normal melting temperature was determined as 64.1 ± 0.5 °C. The “Molar enthalpy of transition or fusion” value in series [2] stood at 25.4 ± 0.75 kJ/mol.

Take `COc1cc(C=O)ccc1O` [vanillin]: the Normal melting temperature in series [1] was found to be 82.4 ± 0.5 °C. For the same compound, the “Molar enthalpy of transition or fusion” value in series [2] was determined as 24 ± 0.7 kJ/mol.

For the compound `COc1cccc(C=O)c1O` [2-hydroxy-3-methoxybenzaldehyde], in series [1], the Normal melting temperature came to 40.5 ± 0.5 °C. Also, the “Molar enthalpy of transition or fusion” value in series [2] amounted to 20.7 ± 0.62 kJ/mol.

Consider `CCOc1cc(C=O)ccc1O` [3-ethoxy-4-hydroxybenzaldehyde], for which, in series [1], the Normal melting temperature is 76.7 ± 0.5 °C. Moreover, the “Molar enthalpy of transition or fusion” value in series [2] is 25.3 ± 0.73 kJ/mol.

Values taken from the NIST ThermoML archive (doi:10.1016/j.fluid.2004.12.012).
